Legend:
[1] = xn = mol fraction of the nth substance listed; settings: 298.15 K, 101 kPa, Liquid
[2] = 298.15 K; 101 kPa; Liquid

C=CC(=O)OCCCC [butyl 2-propenoate] + Cc1ccccc1
[1]
Settings | mass density [kg/m3]
x2 = 0 | 893.955
x2 = 0.0255 | 893.406
x2 = 0.0508 | 892.895
x2 = 0.0999 | 891.775
x2 = 0.1509 | 890.523
x2 = 0.2006 | 889.277
x2 = 0.2506 | 887.998
x2 = 0.2996 | 886.7
x2 = 0.3597 | 885.033
x2 = 0.4006 | 883.858
x2 = 0.4504 | 882.402
x2 = 0.5015 | 880.847
x2 = 0.55 | 879.307
x2 = 0.6006 | 877.659
x2 = 0.6502 | 875.977
x2 = 0.7003 | 874.219
x2 = 0.7501 | 872.408
x2 = 0.8 | 870.53
x2 = 0.8499 | 868.551
x2 = 0.9001 | 866.487
x2 = 0.95 | 864.338
x2 = 0.9751 | 863.216

C=C(C)C(=O)OC [methyl methacrylate] + Cc1ccccc1
[1]
Settings | mass density [kg/m3]
x2 = 0 | 937.646
x2 = 0.0249 | 935.719
x2 = 0.0501 | 933.759
x2 = 0.1005 | 929.859
x2 = 0.15 | 926.06
x2 = 0.1994 | 922.3
x2 = 0.2497 | 918.45
x2 = 0.3001 | 914.63
x2 = 0.35 | 910.852
x2 = 0.3998 | 907.089
x2 = 0.4501 | 903.299
x2 = 0.5 | 899.556
x2 = 0.5501 | 895.803
x2 = 0.5979 | 892.219
x2 = 0.6486 | 888.421
x2 = 0.6998 | 884.596
x2 = 0.7499 | 880.84
x2 = 0.794 | 877.532
x2 = 0.8481 | 873.485
x2 = 0.9 | 869.606
x2 = 0.95 | 865.864
x2 = 0.9731 | 864.133

C=C(C)C(=O)OC [methyl methacrylate] + C=CC(=O)OCCCC
Settings | mass density [kg/m3]
[1], x2 = 0 | 937.65

C=CC(=O)OCCCC [butyl 2-propenoate]
Settings | mass density [kg/m3]
[2] | 893.96

Cc1ccccc1 [toluene] + C=CC(=O)OCCCC
Settings | mass density [kg/m3]
[1], x1 = 1 | 862.11

Cc1ccccc1 [toluene] + C=C(C)C(=O)OC
Settings | mass density [kg/m3]
[1], x1 = 1 | 862.11

C=C(C)C(=O)OC [methyl methacrylate]
Settings | mass density [kg/m3]
[2] | 937.65

C=CC(=O)OCCCC [butyl 2-propenoate] + C=C(C)C(=O)OC
[1]
Settings | mass density [kg/m3]
x1 = 0.025 | 936.15
x1 = 0.0501 | 934.64
x1 = 0.1001 | 931.77
x1 = 0.1502 | 929.01
x1 = 0.2 | 926.33
x1 = 0.25 | 923.76
x1 = 0.2946 | 921.53
x1 = 0.3498 | 918.85
x1 = 0.3992 | 916.57
x1 = 0.45 | 914.28
x1 = 0.4999 | 912.12
x1 = 0.5499 | 910.04
x1 = 0.5999 | 908.01
x1 = 0.644 | 906.27
x1 = 0.6991 | 904.19
x1 = 0.7499 | 902.33
x1 = 0.8002 | 900.52
x1 = 0.8504 | 898.81
x1 = 0.8994 | 897.15
x1 = 0.9499 | 895.53
x1 = 0.9749 | 894.72
x1 = 1 | 893.96

Cc1ccccc1 [toluene]
Settings | mass density [kg/m3]
[2] | 862.11

Reference: the NIST ThermoML archive (doi:10.1016/j.jct.2006.05.012)
